Measured values published in patent US11099176B2 (priority 2015, dated 2021).
Read-outs that look alike come from different tables or passages of the source.

Columns and labels:
[1] = test system: Anaeromyxobacter dehalogenans adLacBP9, YP_466099.1, SEQ ID NO: 9 (expressed form SEQ ID NO: 23); assay: Lactate binding by thermal stability shift and labeled conjugate; details: thermostability vs ligand concentration; fluorescence response of labeled conjugate
Source text: (§1) These experiments comprise four successive steps: • 1. Synthetic gene construction. The amino acid sequence of the homology leads are back translated into DNA sequences. These are optimized for directing heterologous cytoplasmic expression of the protein homologues in E. coli, using either the OrfOpt or OrfMorph programs. These programs predict mRNA sequences that direct high-level protein expression in E. coli. The predicted gene sequences are assembled de novo from synthetic oligonucleotides. • 2. Heterologous protein expression of the homologues in E. coli. Plasmids carrying the synthetic expression constructs (see above) were transformed into KRX competent cells (Promega). Protein production was induced in bacterial cultures of these cultures. • 3. Purification of successfully expressed protein using immobilized metal affinity chromatography. • 4.
(§2) The thermal stability of purified LacBP candidate proteins was determined by measuring the temperature-dependence of the fluorescence signal of an extrinsically added dye, SYPRO, using a Roche LightCycler (Layton and Hellinga, 2010, Biochemistry, 49, 10831-41). The total fluorescence intensity, S, is given by S=βFfF+βUfU 11 where fF and fU are the fractions of protein in the folded and unfolded states, respectively, and βF and βUthe fluorescence baselines of these two states. To get the fractions of the two states, we have
(§3) To obtain the temperature dependence of the binding reaction, the Kd values of all the individually determined isotherms were fit the Gibbs-Hemholtz equation (Layton and Hellinga, 2010, Biochemistry, 49, 10831-41): […]

[2] = target: T1, Flexistipes sinusarabici fsLacBP13, YP_004603455.1, SEQ ID NO: 13 (expressed form SEQ ID NO: 27) (Flexistipes sinusarabici, UniProt F8E724); assay: as above; details: thermostability vs ligand concentration; fluorescence response of labeled conjugate
T1 construct: thermal shift
T1 sequence (F8E724 entry or part of it): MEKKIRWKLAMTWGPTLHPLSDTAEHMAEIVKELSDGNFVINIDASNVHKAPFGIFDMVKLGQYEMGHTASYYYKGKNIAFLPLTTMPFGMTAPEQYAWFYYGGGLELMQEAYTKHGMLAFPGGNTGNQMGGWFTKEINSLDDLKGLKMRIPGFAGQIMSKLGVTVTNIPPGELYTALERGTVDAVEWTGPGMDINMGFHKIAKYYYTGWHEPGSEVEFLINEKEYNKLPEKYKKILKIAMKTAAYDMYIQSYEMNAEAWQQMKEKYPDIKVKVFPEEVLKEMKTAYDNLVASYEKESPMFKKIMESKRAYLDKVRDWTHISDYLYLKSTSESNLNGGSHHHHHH
Source text: as §1, §2, §3

[3] = target: Pseudomonas stuztzeri psLacBP11, YP_006522676.1, SEQ ID NO: 11 (expressed form SEQ ID NO: 25) (Stutzerimonas nitrititolerans, UniProt A0ABX9V4I2); assay: as above; details: thermostability vs ligand concentration; fluorescence response of labeled conjugate
Pseudomonas stuztzeri psLacBP11, YP_006522676.1, SEQ ID NO: 11 (expressed form SEQ ID NO: 25), sequence (A0ABX9V4I2 entry or part of it): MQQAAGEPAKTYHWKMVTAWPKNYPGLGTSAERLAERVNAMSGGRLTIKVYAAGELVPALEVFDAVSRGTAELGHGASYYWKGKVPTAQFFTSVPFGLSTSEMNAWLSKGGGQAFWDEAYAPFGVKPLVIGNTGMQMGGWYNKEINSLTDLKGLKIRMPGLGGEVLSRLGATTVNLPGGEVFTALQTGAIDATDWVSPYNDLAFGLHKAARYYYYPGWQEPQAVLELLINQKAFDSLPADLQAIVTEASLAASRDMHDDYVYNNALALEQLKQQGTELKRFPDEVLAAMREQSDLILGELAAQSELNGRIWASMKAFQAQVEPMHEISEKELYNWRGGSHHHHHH
Source text: as §1, §2, §3

[4] = target: Marinobacter sp. msLacBP6 variant G170C, SEQ ID NO: 36, Badan conjugate; assay: Fluorescence titration of conjugate; type: binding; details: read-out: trueKd (lactate); monochromatic, 520 nm
[5] = target: Marinobacter sp. msLacBP6 variant Y187C (187C), SEQ ID NO: 38, Badan conjugate; assay: Fluorescence titration of conjugate; type: binding
[6] = target: Marinobacter sp. msLacBP6 variant V192C, SEQ ID NO: 40, Acrylodan conjugate; assay: Fluorescence titration of conjugate; type: binding; details: read-out: trueKd (lactate); monochromatic, 500 nm
[7] = target: T2, Marinobacter adhaerens maLacBP8 variant F189C, SEQ ID NO: 43, Badan conjugate (Marinobacter adhaerens, UniProt E4PNW2, C105A/C90A/F252C); assay: Fluorescence titration of conjugate; type: binding
T2 construct: Badan on Cys189
T2 sequence (E4PNW2 entry or part of it C90A/C105A/F252C): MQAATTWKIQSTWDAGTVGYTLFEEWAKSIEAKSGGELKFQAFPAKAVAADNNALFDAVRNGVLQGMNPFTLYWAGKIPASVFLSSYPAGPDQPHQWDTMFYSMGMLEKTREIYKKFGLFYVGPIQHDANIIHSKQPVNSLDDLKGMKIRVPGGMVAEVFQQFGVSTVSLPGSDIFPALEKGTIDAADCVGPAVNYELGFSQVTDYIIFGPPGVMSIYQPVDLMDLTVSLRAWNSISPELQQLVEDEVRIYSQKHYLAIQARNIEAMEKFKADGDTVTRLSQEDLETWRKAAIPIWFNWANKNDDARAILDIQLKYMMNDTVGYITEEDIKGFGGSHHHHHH

[8] = target: T3, Pseudomonas stuztzeri psLacBP11 variant W195C, SEQ ID NO: 45, Acrylodan conjugate (Stutzerimonas nitrititolerans, UniProt A0ABX9V4I2, W224C); assay: Fluorescence titration of conjugate; type: binding; details: λ1 487, λ2 466 nm
T3 construct: Acrylodan on Cys195
T3 sequence (A0ABX9V4I2 entry or part of it W224C): as the sequence (A0ABX9V4I2 entry or part of it) above, with W195C counted along it

[9] = target: T4, Flexistipes sinusarabici fsLacBP13 variant W188C, SEQ ID NO: 47, Acrylodan conjugate (Flexistipes sinusarabici, UniProt F8E724, W211C); assay: Fluorescence titration of conjugate; type: binding
T4 construct: Acrylodan on Cys188
T4 sequence (F8E724 entry or part of it W211C): as the sequence (F8E724 entry or part of it) above, with W188C counted along it

[10] = target: Marinobacter sp. msLacBP6 variant 187C, F68L, SEQ ID NO: 49, Acrylodan conjugate; assay: Fluorescence titration of conjugate (affinity tuning); type: binding; details: λ1 459, λ2 516 nm
[11] = target: Marinobacter sp. msLacBP6 variant 187C, L70I, SEQ ID NO: 52, Acrylodan conjugate; assay: as above; type: binding; details: λ1 452, λ2 582 nm
[12] = target: Marinobacter sp. msLacBP6 variant 187C, L70M, SEQ ID NO: 53, Acrylodan conjugate; assay: as above; type: binding; details: λ1 455, λ2 479 nm
[13] = target: Marinobacter sp. msLacBP6 variant 187C, P150S, SEQ ID NO: 55, Badan conjugate; assay: as above; type: binding; details: read-out: trueKd (lactate); monochromatic, 528 nm
[14] = target: Marinobacter sp. msLacBP6 variant 187C, D220E, SEQ ID NO: 56, Acrylodan conjugate; assay: as above; type: binding; details: λ1 483, λ2 510 nm
[15] = target: Marinobacter sp. msLacBP6 variant 187C, D220E, SEQ ID NO: 56, Badan conjugate; assay: as above; type: binding; details: read-out: trueKd (lactate); monochromatic, 532 nm
[16] = test system: Marinobacter sp. msLacBP6 187C mutants (variants of Table 7); assay: Affinity summary of msLacBP6 187C affinity-tuning mutants; type: binding
Source text: In the PCS we mutated F68 (F98 in ttLacBP1) and D220 (D250 in ttLacBP1). […] It could therefore be considered part of a secondary complementary surface layer (SCS). In the interface we mutated L70 (L100 in ttLacBP1), which is located at the periphery of the lactate-binding site, and forms a contact from the N- to the C-terminal domain across the inter-domain interface.
Both PCS and SCS mutations perturbed the spectral shapes of the lactate-mediated responses. […] These affinity-tuned sensors therefore provide a suitable set for clinical chemistry applications.

C[C@H](O)C(=O)O [lactate]
Lactate Binding [1]: weak^f,g | Lactate Binding [2]: weak^f,g | Lactate Binding [3]: weak^f,g | Kd [4]: 20 µM | Kd ([5]; read-out: appKd (lactate), approximate, text statement for Acrylodan and Badan conjugates): ~400 µM | Kd ([5]; read-out: appKd (lactate), λ1 460, λ2 537 nm): 300 µM | Kd ([5]; read-out: appKd (lactate), λ1 539, λ2 459 nm (Table 6)): 110 µM | Kd ([5]; read-out: trueKd (lactate), λ1 460, λ2 537 nm): 200 µM | Kd ([5]; read-out: trueKd (lactate), λ1 539, λ2 459 nm (Table 6)): 250 µM | Kd [6]: 20 µM | Kd [7]: 600 µM | Kd ([8]; read-out: appKd (lactate)): > 100000 µM | Kd ([8]; read-out: trueKd (lactate)): > 100000 µM | Kd [9]: > 100000 µM | Kd ([9]; read-out: trueKd (lactate), λ1 482, λ2 450 nm): > 100000 µM | Kd ([10]; read-out: appKd (lactate)): 600 µM | Kd ([10]; read-out: trueKd (lactate)): 500 µM | Kd ([11]; read-out: appKd (lactate)): 400 µM | Kd ([11]; read-out: trueKd (lactate)): 300 µM | Kd ([12]; read-out: appKd (lactate)): 1600 µM | Kd ([12]; read-out: trueKd (lactate)): 1200 µM | Kd [13]: 14400 µM | Kd ([14]; read-out: appKd (lactate)): 5100 µM | Kd ([14]; read-out: trueKd (lactate)): 4000 µM | Kd [15]: 3100 µM | effect of F68 mutations on lactate affinity ([16]; F68 mutations in 187C background): did not greatly affect lactate affinity | Kd ([16]; read-out: lactate affinities (range over variants), msLacBP6 Acrylodan and Badan conjugate variants): 200 to 24000 µM
